Where two headings read alike, the source gives them in different places.
Tests used:
[1] = molecular target: T1, farnésyltransférase humaine (Homo sapiens, UniProt P49354+P49356); experiment: Farnesyltransferase inhibition: transfer of (3H) farnesyl from (3H) FPP to p21 H-Ras; type: biochemical; conditions: read-out: Activité inhibitrice IC50
T1 construct: farnésyltransférase humaine purifiée à partir de cultures de cellules THP1; endogenous in cells; host or cells: THP1 cell cultures (enzyme purified from them)
Procedure: L'activité farnésyltransférase est déterminée par la quantité de (^3H) farnésyl transférée à partir du (^3H) farnésylpyrophosphate [(^3H) FPP) sur la protéine p21 H-Ras. Le mélange réactionnel standard est composé, pour un volume final de 60 µl, de Tris-HCl 50mM, MgCl2 5mM, dithiotréitol 5 mM, octyl-β-D-glucopyranoside 0,2 %, p21 H-ras 200 picomoles, (^3H) FPP (à 61000 dpm/picomole) 4,5 picomoles.
La réaction est initiée par addition d'environ 5 ng de farnésyltransférase humaine purifiée à partir de cultures de cellules THP1. Après incubation pendant 20 minutes à 37°C en plaque de microtitration contenant 96 trous de 1 cm3 par plaque (Titer Plate®, Beckman), la réaction est stoppée par addition de 0,4 cm3 de SDS à 0,1 % dans le méthanol à 0°C. Le mélange est ensuite additionné de 0,4 cm3 d'acide trichloroacétique (TCA) à 30 % dans le méthanol. Les plaques sont laissées pendant 1 heure dans la glace. Le contenu précipité est alors retenu sur membrane en fibre de verre Filtermat®, Pharmacia) avec l'unité de filtration (Combi Cell Harvester®, Skatron) et rincé avec de l'acide trichloroacétique à 6 % dans l'eau distillée. Les membranes sont séchées au four à micro-ondes puis imprégnées de scintillant par fusion sous air chaud de Meltilex® (Pharmacia) et enfin comptées en cpm dans un compteur β-Plate® (LKB). Chaque essai est répété 3 fois.
L'unité d'activité est définie par 1 picomole de (^3H) FPP transférée sur p21 H-Ras en 20 minutes.
Les pourcentages d'inhibition sont obtenus par comparaison des essais avec et sans inhibiteur après déduction des blancs, les IC50 étant mesurées à partir des inhibitions obtenues avec 9 concentrations différentes en utilisant les logiciels Enzfitter® ou Grafit®.

[2] = tested on: farnésylation de la protéine Ras; experiment: Inhibition of Ras protein farnesylation in THAC cells (Triton X114 extraction, Western blot); type: cell-based; conditions: 24 h culture, read-out: % d'inhibition sur cellules (THAC)
Description: La lignée cellulaire est la lignée THAC (cellules CCL 39 transfectées par Ha-Ras activé) selon K. Seuwen et coll., EMBO J., 7(1) 161-168 (1988). Les cellules sont ensemencées dans des boîtes de Petri de 6 cm de diamètre contenant un milieu DMEM, sérum de veau foetal 5 %, G418 1 %.
Après 24 heures de culture, le milieu de culture est changé (avec ou sans sérum) et le produit à étudier est ajouté en solution dans le diméthylformamide (DMF), en présence ou en absence de DTT (concentrations finales de 0,5 % en DMF et 0,1mM en DTT). Après 24 heures de culture à 37°C, les cellules sont lysées dans 1 cm3 de tampon de lyse (Tris, HCI 20mM, Triton X114 1 %, MgCl2 5 mM, DIT 7 mM, NaCl 150 mM, pH = 7,4). Les lysats sont clarifiés par centrifugation à 4.000 tours/minute pendant 10 minutes. L'extraction par le Triton X114 permet de séparer la protéine Ras farnésylée de la protéine Ras non farnésylée [C. BORDIER, J. Biol. Chem., 256 (4), 1604-1607 (1981)]. La protéine Ras farnésylée qui est plus hydrophobe se trouve dans la phase détergente tandis que la protéine Ras non farnésylée est dans la phase aqueuse. Les échantillons sont dénaturés par chauffage à 95°C dans du tampon de dénaturation pour électrophorèse et déposées sur un gel de polyacrylamide à 14 %. Lorsque le colorant atteint le bas du gel, les protéines du gel sont transférées sur une membrane PVDF. […]

Row | IC50 ([1]; unit inferred) [nM] | SMILES | other results
1 | – | CS(=O)(=O)CC[C@H](NC(=O)c1cccc2cc(NC[C@@H](N)CS)ccc12)C(=O)O [Exemple 21, acide 2(S)-[6-(2(R)-amino-3-mercapto-propylamino)-1-naphtoylamino]-4-méthylsulfonyl-butanoïque] | IC50 [1]: 4 nM
2 | 80 | COC(=O)[C@H](CCSC)NC(=O)c1cccc2cc(NC[C@@H](N)CS)ccc12 [Exemple 20, ester méthyliquede la N-[6-(2(R)-amino-3-mercapto-propylamino)-naphtyl-1-carbonyl]-L-méthionine] | inhibition at 10 µM ([2]; à 10 µM): 50%
3 | 70 | COCCOCCOC(=O)[C@H](CCSC)NC(=O)c1cccc2c(NC[C@@H](N)CS)cccc12 [Exemple 9, ester 2-(2-méthoxyéthoxy) éthyliquede la N-[5-(2(R)-amino-3-mercapto-propylamino)-naphtyl-1-carbonyl]-L-méthionine] | –
4 | 1.8 | CSCC[C@H](NC(=O)c1cccc2cc(NC[C@@H](N)CS)ccc12)C(=O)O [Exemple 19, N-[6-(2(R)-amino-3-mercapto-propylamino)-naphtyl-1-carbonyl]-L-méthionine] | inhibition at 50 µM ([2]; à 50 µM): 31%
5 | 69 | CCCC[C@H](NC(=O)c1cccc2c(NC[C@@H](N)CS)cccc12)C(=O)O [Exemple 5, N-[5-(2(R)-amino-3-mercapto-propylamino)-naphthyl-1 carbonyl]-L-norleucine] | –
6 | 21 | CSCC[C@H](NC(=O)c1cccc2c(NC[C@@H](N)CS)cccc12)C(=O)OCCS(=O)(=O)c1ccccc1 [Exemple 10] | –
7 | 100 | CSCC[C@H](NC(=O)c1cccc2c(NC[C@@H](N)CS)cccc12)C(=O)OCc1ccccc1 [Exemple 8, ester benzyliquede la N-[5-(2(R)-amino-3-mercapto-propylamino)-naphtyl-1-carbonyl]-L-méthionine] | –
8 | 5.6 | CSCC[C@H](NC(=O)c1cccc2c(NC[C@@H](N)CS)cccc12)C(=O)O [Exemple 3, N-[5-(2(R)-amino-3-mercapto-propylamino)-naphthyl-1-carbonyl]-L-méthionine] | –
9 | 48 | CSCC[C@H](NC(=O)c1cccc2c(NC(=O)[C@@H](N)CS)cccc12)C(=O)O [Exemple 1, N-[5-(2(R)-amino-3-mercapto-propionylamino)-naphthyl-1-carbonyl}-L-méthionine] | –

Source: patent EP0764149B1, “NOVEL FARNESYL TRANSFERASE INHIBITORS, THEIR PREPARATION AND PHARMACEUTICAL COMPOSITIONS CONTAINING SAME” (RHONE-POULENC RORER S.A., priority 1994, dated 1995)
